Entries after “also recorded” stand apart in the source; their conditions may differ.
How the values were obtained:
PC12 cells = experiment: MTT assay of mitochondrial function; assay type: cell-based, rat
Experimental: A colorimetric assay measuring the number and respiratory activity of surviving cells (Mossman, 1983) was used to monitor the effect of the synthetic peptides on PC12 cells. Culture plates (96-233, Flow, flat bottom) were seeded with 4,000 cells per well and received treatment identical to the cells read for neurite formation. At the indicated times, the medium was removed from the wells with a Pasteur pipette and replaced with 110 μl of RPMI+10% fetal calf serum containing 0.45 mg·ml^−1 MTT (Sigma) and the plate were returned to a humidified, 5% CO2 incubator for 4 hours. 100 μl of 0.4N HCl in isopropanol was then added to each well with trituration (approximately 50 times) to solublize the formazan. The plates were read 10 minutes later in a flow Titertek Multiskan equipped with a 570 nm filter, and the optical density values obtained were corrected for cell-free blank. In each experiment, the values are the average of at least triplicate determinations normalized to its control. The MTT dye conversion was linear with number of viable cells over the range seeded, i.e. 2000 to 10,000 cells per well.

TrkA = biological target: T1, TrkA (Rattus norvegicus, UniProt P35739); experiment: [125I]NGF affinity cross-linking to TrkA; assay type: binding; conditions: PC12 cells, 50 μM R3
T1 construct: endogenous in cells; host or cells: PC12
Experimental: (§1) FIG. 7A illustrates the influence of peptide R3 on affinity cross-linking of TrkA and p75^NTR. Intact PC12 cells were treated with 50 μM R3 for 24 h (preinc.) in medium, harvested with CMF medium, and suspended at a concentration of 10^6·ml^−1 (or 10^7·m^−1 for immunoprecipitation studies) in HKR buffer. Cells were then incubated in the presence or absence of R3 (coinc.) for 15 min at 37° C. and cooled in ice. Cross-linking was performed by incubating cells with 1 nM [^125I]-NGF for 2 h at 4° C., adding EDC ([…]) and NHS (2 mM) or BS^3 (0.4 mM) as indicated, and incubating for 30 min at 25° C. Cells were washed three times in HKR buffer and the pellet dissolved in reducing SDS sample buffer or in lysis buffer (1% NP-40, 10% glycerol, 1 mM PMSF, 10 μg-ml^−1 aprotinin, 1 μg/ml leupeptin, […] o-vanadate in TBS) for immunoprecipitation (lanes 4 and 8). For immunoprecipitation, the cellular debris was removed by centrifugation and the supernatant incubated with 1 μg anti-p75^NTR monoclonal Ab 192 (Cedarlane Laboratories Ltd.) or 1 μg anti-TrkA polyclonal Ab (a gift from Dr. W. Mobley, University of California, San Francisco) for 4 h at 4° C. Immunoprecipates were isolated by incubating with 50 μl of a 50% solution of protein A-SEPHAROSE™ (anti-Trk) or goat anti-mouse agarose (Ab 192) for 2 h at 4° C. Precipitates were washed 3 times in lysis buffer and dissolved in sample buffer. […]

ED8 chick DRG neurons = experiment: NGF-mediated neurite growth by ED8 chick DRG sensory neurons; assay type: cell-based
p75^NTR = biological target: T2, p75^NTR (Rattus norvegicus, UniProt P07174); experiment: [125I]NGF affinity cross-linking to p75NTR; assay type: binding; conditions: PC12 cells, 50 μM R3
T2 construct: endogenous in cells; host or cells: PC12
T2 sequence (P07174 30-425): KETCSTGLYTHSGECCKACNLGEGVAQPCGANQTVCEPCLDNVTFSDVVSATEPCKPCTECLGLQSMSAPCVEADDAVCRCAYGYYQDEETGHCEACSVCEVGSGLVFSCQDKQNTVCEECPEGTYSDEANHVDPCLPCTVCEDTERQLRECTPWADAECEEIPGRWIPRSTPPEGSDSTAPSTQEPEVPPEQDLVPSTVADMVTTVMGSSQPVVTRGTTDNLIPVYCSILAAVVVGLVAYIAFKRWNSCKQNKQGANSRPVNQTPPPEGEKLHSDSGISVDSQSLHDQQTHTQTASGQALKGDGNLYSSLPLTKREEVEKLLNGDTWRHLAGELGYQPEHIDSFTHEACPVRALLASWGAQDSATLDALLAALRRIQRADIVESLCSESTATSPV
Experimental: as §1

T1 sequence (P35739 33-799): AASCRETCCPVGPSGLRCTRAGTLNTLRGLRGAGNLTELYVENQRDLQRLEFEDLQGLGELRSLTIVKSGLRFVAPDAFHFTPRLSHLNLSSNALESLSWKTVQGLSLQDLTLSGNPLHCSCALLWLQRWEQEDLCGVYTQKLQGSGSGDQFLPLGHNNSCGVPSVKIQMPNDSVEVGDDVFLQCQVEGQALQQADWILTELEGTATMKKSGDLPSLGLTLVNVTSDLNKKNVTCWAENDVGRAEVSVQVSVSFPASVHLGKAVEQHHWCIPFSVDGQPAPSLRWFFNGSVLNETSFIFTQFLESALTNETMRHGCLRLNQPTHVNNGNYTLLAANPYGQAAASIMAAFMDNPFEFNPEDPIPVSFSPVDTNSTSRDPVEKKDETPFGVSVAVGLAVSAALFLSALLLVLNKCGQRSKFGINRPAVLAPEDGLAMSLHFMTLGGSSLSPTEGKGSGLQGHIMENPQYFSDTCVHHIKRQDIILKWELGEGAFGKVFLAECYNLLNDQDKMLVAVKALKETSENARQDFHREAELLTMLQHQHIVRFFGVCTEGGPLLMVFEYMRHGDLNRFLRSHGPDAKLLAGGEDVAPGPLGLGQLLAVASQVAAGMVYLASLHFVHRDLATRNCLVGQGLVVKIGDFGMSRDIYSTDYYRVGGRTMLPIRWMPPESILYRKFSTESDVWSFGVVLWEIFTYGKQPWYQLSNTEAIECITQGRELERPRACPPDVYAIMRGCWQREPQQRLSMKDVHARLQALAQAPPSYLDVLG

## LDALLAALRRIQR [R3]
PC12 cells
  Mitochondrial succinate dehydrogenase activity (MTT), in words: not enhanced
TrkA
  Affinity cross-linking of [125I]NGF to TrkA monomers or homodimers, in words: not affected
ED8 chick DRG neurons; (peptide with NGF − NGF alone)/(R3 with NGF − NGF alone) ×100, scored at 43, 44 and 48 hours, M ± SEM, n = 3 assays
  % of Control Response DRG: 100 ± 16%
ED8 chick DRG neurons; ED8 chick DRG neurons, 10 μM R3
  Effect on NGF-mediated neurite growth, co-incubation, in words: enhancing effect; also recorded: markedly increased the response to NGF between 4 and 8 hours
p75^NTR
  Affinity cross-linking of [125I]NGF to p75NTR monomers or homodimers, in words: not affected
